Laboratory results as given in PubChem BioAssay AID618 (Sanford-Burnham Center for Chemical Genomics, 2007).
Activity calls are given as the source filed them. The rule behind the calls is not given here.

tested on: MT1-MMP promoter luciferase reporter cells, luminescence; assay: inhibitors of MT1-MMP promoter transcription, cell-based, luciferase reporter, luminescence (AID 618);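 note: actives suppress MT1-MMP promoter-driven transcription so potencies describe inhibitors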

Row | SMILES | EC50
1 | COc1ccc(-c2noc(CCCC(=O)O)n2)cc1 | 0.77 µM
2 | Cc1ccc(C(=O)Nc2cnc3ccccc3c2)cc1 | 0.2 µM
3 | CCCCN(C)C(=O)c1cc2cc3ccc(OC)cc3nc2s1 | 3.61 µM
4 | CC(=O)N(/N=C1\Sc2ccccc2C1=O)c1ccc(C)cc1C | 1.97 µM
5 | CC(C)(C)c1ccc(OCC(O)CSc2ncn[nH]2)cc1 (stereo not given) | 16.9 µM
6 | CCOc1ccc(-c2nnc(-c3ccco3)o2)cc1 | 1.42 µM
7 | O=C(Nc1ccc(N2CCCC2)c(Cl)c1)c1ccco1 | 2.68 µM
8 | Cc1cc(C(=O)CSc2nc3ccccc3[nH]2)c(C)n1CC1CCCO1 (stereo not given) | 3.86 µM
9 | Cc1ccc(OCc2nc(-c3ccccn3)no2)c(Br)c1 | 2.17 µM
10 | COCCn1c(C)cc(C(=O)CSc2ccc(NC(C)=O)cc2)c1C | 8.54 µM
11 | CCCN1C=CC(=C2C(=O)c3ccccc3C2=O)C=C1 | < 0.098 µM
12 | CCOc1ccc(OCc2ccc(C(=O)O)o2)cc1 | 5.8 µM
13 | O=C(Nc1ccc(NC(=O)c2ccco2)nc1)c1ccccn1 | 9.01 µM
14 | COC(=O)c1nn(-c2ccc(-c3ccccc3)cc2)cc1O | 1.48 µM
15 | O=C(Nc1ccc(CN2CCOCC2)cc1)c1cc2ccccn2n1 | 3.35 µM
16 | CCOC(=O)/C(=C\c1ccccc1)C(=O)c1cc(C(C)=O)c(Nc2ccccc2)s1 | 14.4 µM
17 | COc1ccc(-c2nc3ccccc3[nH]2)cc1 | 2.72 µM
18 | Cc1cc(N2CCOCC2)n2ncc(-c3ccccc3)c2n1 | 3.57 µM

Further lines, results first:

Row | EC50 | SMILES
19 | 1.12 µM | COC(=O)c1ccc(-c2nc(-c3cccs3)no2)cc1
20 | 13.1 µM | Cc1c(NC(=O)c2coc(=O)c(Br)c2)c(=O)n(-c2ccccc2)n1C
21 | 3.47 µM | Nc1ccc(C(=O)Nc2nc3ccccc3s2)cc1
22 | > 50 µM (inactive) | COc1ccc(S(=O)(=O)N2CCN(C(=O)CCC3CCCC3)CC2)cc1
23 | 3.06 µM | O=C1c2ccccc2S(=O)(=O)N1Cc1nc2ccccc2s1
24 | 3.85 µM | CC(C)Nc1ncnc2c1cnn2-c1ccc(Cl)cc1
25 | 3.9 µM | CN1CCN(c2ncnc3c2cnn3-c2ccc(Cl)cc2)CC1
26 | 2.01 µM | O=C(/C=C\Nc1ccccn1)c1ccccc1
27 | < 0.098 µM | Cc1ccc(-c2nc(-c3ccccn3)no2)cc1
28 | 1.02 µM | O=C1c2ccccc2C(=O)C1c1ccnc2ccccc12
29 | 3.63 µM | COCCn1c(C)cc(C(=O)CSc2nnc3ccccn23)c1C
30 | 9.02 µM | c1ccc(-c2ccc(-c3nc(-c4ccncc4)no3)cc2)cc1
31 | 0.57 µM | COc1ccc(O)c(C(=O)CC(=O)c2ccc(F)cc2)c1
32 | 6.31 µM | COc1ccc(-n2ncc3c(NCC(C)C)ncnc32)cc1
33 | 0.59 µM | O=c1c(Cl)c(N2CCCCC2)cnn1-c1nc2ccccc2[nH]1
34 | 6.14 µM | CCCCCN=Cc1c(C)[nH]n(-c2nc3ccccc3s2)c1=O
35 | 8.5 µM | C=CCNc1ncnc2c1cnn2-c1ccc(OC)cc1
36 | 12.1 µM | Clc1c(CSc2nc3ccccc3o2)nc2ccccn12
37 | 13 µM | CCCCOc1ccc(C(=O)C(CN2CCOCC2)c2ccccc2)cc1 (stereo not given)
38 | 5.98 µM | Cc1ccc(C(=O)Nc2nc3c(s2)CCCC3)o1
39 | 12.5 µM | Cc1c(C(=O)NCC2CCCO2)oc2ccc3c(c12)C(=O)CC(C)(C)O3 (stereo not given)
40 | > 50 µM (inactive) | CCc1cc2c(=O)n(Cc3ccco3)c(SCc3c(C)noc3C)nc2s1
41 | > 50 µM (inactive) | Cc1cccc(C(=O)N2CCN(C(=O)c3cccc(C)c3)C(C)C2)c1 (stereo not given)
42 | 26.6 µM | Cc1cc(C)c(OCC(=O)Nc2cccc(O)c2)cc1C
43 | 24.6 µM | O=S1(=O)Nc2c(ccc3cccnc23)-c2ccccc21
44 | 1.82 µM | COc1ccccc1-c1nc(-c2ccccn2)no1
45 | 0.4 µM | CN(C)c1ccc(NC(=S)c2ccccn2)cc1
